According to patent US9974778B2, “Substituted pyridinones as MGAT2 inhibitors” (BRISTOL-MYERS SQUIBB COMPANY, priority 2014, dated 2018):

Target: T1, Human MGAT-2 (Homo sapiens, UniProt Q3SYC2)
T1 construct: made in house; host or cells: Sf9 cells (membrane preparation)
Experiment: MGAT LCMS Assay
Type: biochemical
Conditions: human MGAT2 membranes expressed in Sf9 cells; 100 μM 2-oleoylglycerol, 15 μM oleoyl-coenzyme A; read-out: h-MGAT LCMS IC50
Method: Assay plates were run through a fully automated robotics system and shaken for 5 seconds every minute for a total 10 minutes. The reactions were then quenched with 120 μL of ice cold methanol containing 1 μg/mL 1,2-distearoyl-rac-glycerol as the internal standard. Plates were shaken for 2 minutes and spun down to remove protein precipitation. After the spin, samples were transferred to LC/MS compatible PCR plates. For LC/MS analysis, a ThermoFisher Surveyor pump, utilizing a Waters […]® C8, 50×2.1 mm column, was used for the chromatography of enzyme products. The buffer system consists of 0.1% formic acid in water with a mobile phase consisting 0.1% formic acid in methanol. […] The first 0.5 minutes of each injection was diverted to waste to eliminate the presence of Phosphate buffer in the enzymatic reaction. The column was run at 0.6 mL/min and a temperature of 65° C. Mass spectrometry analysis of the samples was performed on a ThermoFisher Quantum Triple quad utilizing APCI (+) as the mode of ionization. […] The ratio of Diolein to internal standard (Peak Area Ratio) is utilized to calculate IC50 values.

T1 sequence (Q3SYC2 whole entry): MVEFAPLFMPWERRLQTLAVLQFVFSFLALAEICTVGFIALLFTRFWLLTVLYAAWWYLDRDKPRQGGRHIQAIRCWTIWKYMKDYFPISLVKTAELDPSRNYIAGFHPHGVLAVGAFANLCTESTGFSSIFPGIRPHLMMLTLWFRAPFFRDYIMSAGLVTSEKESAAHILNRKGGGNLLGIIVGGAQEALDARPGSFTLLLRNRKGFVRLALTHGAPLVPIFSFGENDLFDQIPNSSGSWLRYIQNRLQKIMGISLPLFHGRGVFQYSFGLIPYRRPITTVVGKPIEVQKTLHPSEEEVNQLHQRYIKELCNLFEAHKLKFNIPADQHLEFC

| IC50 [µM] | Structure (SMILES) |
| --- | --- |
| 0.168 | CCC/C=C/c1ccc(-c2cc(-c3ccc(N(C)C)cc3)c(-c3nn[nH]n3)c(=O)[nH]2)cc1 [Example 80, (E)-4-(4-(Dimethylamino)phenyl)-6-(4-(pent-1-en-1-yl)phenyl)-3-(2H-tetrazol-5-yl)pyridin-2(1H)-one] |
| 0.256 | Cc1ccc(-c2cc(-c3ccc(Cc4ccccc4)cc3)[nH]c(=O)c2-c2nn[nH]n2)cc1 [Example 81, 6-(4-Benzylphenyl)-3-(2H-tetrazol-5-yl)-4-(p-tolyl)pyridin-2(1H)-one] |
| 0.001 | CN(C)c1ncc(-c2cc(C3CCCCC3)[nH]c(=O)c2C(=O)Nc2ccc(OC(F)(F)F)cc2)s1 [Example 82, 6-Cyclohexyl-4-(2-(dimethylamino)thiazol-5-yl)-2-oxo-N-(4-(trifluoromethoxy)phenyl)-1,2-dihydropyridinc-3-carboxamide] |
| 0.001 | CCc1ccc(-c2cc(-c3ccc(OCCCCCC(F)(F)F)cc3)[nH]c(=O)c2C(=O)NS(=O)(=O)C2CC2)s1 [Example 84, N-(Cyclopropylsulfonyl)-4-(5-ethylthiophen-2-yl)-2-oxo-6-(4-((6,6,6-trifluorohexyl)oxy)phenyl)-1,2-dihydropyridine-3-carboxamide] |
| 0.007 | O=C(Nc1ccc(OC(F)(F)F)cc1)c1c(-c2ccc(Cl)s2)cc(C2CCCCC2)[nH]c1=O [Example 85, 4-(5-Chlorothiophen-2-yl)-6-cyclohexyl-2-oxo-N-(4-(trifluoromethoxy)phenyl)-1,2-dihydropyridine-3-carboxamide] |
| 0.355 | O=C(Nc1ccc(OC(F)(F)F)cc1)c1c(-c2cnn(C3CC3)c2)cc(C2CCCCC2)[nH]c1=O [Example 94] |
| 0.001 | O=c1[nH]c(-c2ccc(OCCCCCC(F)(F)F)cc2F)cc(-c2ccc(C3CC3)s2)c1-c1nn[nH]n1 [Example 96, 4-(5-Cyclopropylthiophen-2-yl)-6-(2-fluoro-4-((6,6,6-trifluorohexyl)oxy)phenyl)-3-(2H-tetrazol-5-yl)pyridin-2(1H)-one] |
| 0.153 | O=c1[nH]c(-c2ccc(OCCCC(F)(F)F)cc2)cc(-c2ccn(CC3CC3)n2)c1-c1nnn[nH]1 [Example 97] |
| 0.007 | CCc1ccc(-c2cc(-c3ccc(OCCCCCC(F)(F)F)cc3)[nH]c(=O)c2C(=O)NS(C)(=O)=O)s1 [Example 101, 4-(5-Ethylthiophen-2-yl)-N-(methylsulfonyl)-2-oxo-6-(4-((6,6,6-trifluorohexyl)oxy)phenyl)-1,2-dihydropyridine-3-carboxamide] |
| 0.026 | O=c1[nH]c(-c2ccc(CCCCC(F)(F)F)cc2F)cc(-c2ccn(C3CCC3)n2)c1-c1nnn[nH]1 [Example 103] |
| 0.084 | O=c1[nH]c(-c2ccc(OCCCCCC(F)(F)F)cc2F)cc(-c2ccn(C3CC3)n2)c1-c1nn[nH]n1 [Example 104, 4-(1-Cyclopropyl-1H-pyrazol-3-yl)-6-(2-fluoro-4-((6,6,6-trifluorohexyl)oxy)phenyl)-3-(2H-tetrazol-5-yl)pyridin-2(1H)-one] |

| Structure (SMILES) | IC50 [µM] |
| --- | --- |
| O=c1[nH]c(-c2ccc(OCCCC(F)(F)F)cc2F)cc(-c2ccc3c(c2)CCCC3)c1-c1nn[nH]n1 [Example 89, 6-(2-Fluoro-4-(4,4,4-trifluorobutoxy)phenyl)-4-(5,6,7,8-tetrahydronaphthalen-2-yl)-3-(2H-tetrazol-5-yl)pyridin-2(1H)-one] | 0.024 |
| O=C(Nc1ccc(OC(F)(F)F)cc1)c1c(-c2cnn(C3CC3)c2)cc(-c2ccc(OCCCC(F)(F)F)cc2)[nH]c1=O [Example 95, 4-(1-Cyclopropyl-1H-pyrazol-4-yl)-2-oxo-6-(4-(4,4,4-trifluorobutoxy)phenyl)-N-(4-(trifluoromethoxy)phenyl)-1,2-dihydropyridine-3-carboxamide] | 0.017 |
| CS(=O)(=O)NC(=O)c1c(-c2ccn(CC3CC3)n2)cc(-c2ccc(OCCCC(F)(F)F)cc2)[nH]c1=O [Example 98, 4-(1-(Cyclopropylmethyl)-1H-pyrazol-3-yl)-N-(methylsulfonyl)-2-oxo-6-(4-(4,4,4-trifluorobutoxy)phenyl)-1,2-dihydropyridine-3-carboxamide] | 0.332 |
